Legend:
[1] = target: hERG current in hERG-expressed HEK 293 cells (Homo sapiens, UniProt Q12809)
[2] = tested on: IL-17 production of mouse spleen cells stimulated by rm-IL-23; assay: Production of IL-17 induced when mouse spleen cells were stimulated by recombinant mouse interleukin-23 (rm-IL-23); type: cell-based; conditions: inhibition of IL-17 production; DBA/1J mouse spleen cells, rm-IL-23 1 nmol/L, 72 hours, ELISA
Procedure, shortened: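 Spleen cells from 6-7 week-old male DBA/1J mice, 2×10^5 cells/well in 10% FCS RPMI1640, cultured 72 h at 37° C with compound (1 to 1,000 nmol/L) plus 1 nmol/L rm-IL-23. IL-17 in supernatant by ELISA; viability by WST-8 absorbance at 450 nm; IC50 by linear regression of inhibition rate.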

Sequence of hERG current in hERG-expressed HEK 293 cells (Q12809 whole entry): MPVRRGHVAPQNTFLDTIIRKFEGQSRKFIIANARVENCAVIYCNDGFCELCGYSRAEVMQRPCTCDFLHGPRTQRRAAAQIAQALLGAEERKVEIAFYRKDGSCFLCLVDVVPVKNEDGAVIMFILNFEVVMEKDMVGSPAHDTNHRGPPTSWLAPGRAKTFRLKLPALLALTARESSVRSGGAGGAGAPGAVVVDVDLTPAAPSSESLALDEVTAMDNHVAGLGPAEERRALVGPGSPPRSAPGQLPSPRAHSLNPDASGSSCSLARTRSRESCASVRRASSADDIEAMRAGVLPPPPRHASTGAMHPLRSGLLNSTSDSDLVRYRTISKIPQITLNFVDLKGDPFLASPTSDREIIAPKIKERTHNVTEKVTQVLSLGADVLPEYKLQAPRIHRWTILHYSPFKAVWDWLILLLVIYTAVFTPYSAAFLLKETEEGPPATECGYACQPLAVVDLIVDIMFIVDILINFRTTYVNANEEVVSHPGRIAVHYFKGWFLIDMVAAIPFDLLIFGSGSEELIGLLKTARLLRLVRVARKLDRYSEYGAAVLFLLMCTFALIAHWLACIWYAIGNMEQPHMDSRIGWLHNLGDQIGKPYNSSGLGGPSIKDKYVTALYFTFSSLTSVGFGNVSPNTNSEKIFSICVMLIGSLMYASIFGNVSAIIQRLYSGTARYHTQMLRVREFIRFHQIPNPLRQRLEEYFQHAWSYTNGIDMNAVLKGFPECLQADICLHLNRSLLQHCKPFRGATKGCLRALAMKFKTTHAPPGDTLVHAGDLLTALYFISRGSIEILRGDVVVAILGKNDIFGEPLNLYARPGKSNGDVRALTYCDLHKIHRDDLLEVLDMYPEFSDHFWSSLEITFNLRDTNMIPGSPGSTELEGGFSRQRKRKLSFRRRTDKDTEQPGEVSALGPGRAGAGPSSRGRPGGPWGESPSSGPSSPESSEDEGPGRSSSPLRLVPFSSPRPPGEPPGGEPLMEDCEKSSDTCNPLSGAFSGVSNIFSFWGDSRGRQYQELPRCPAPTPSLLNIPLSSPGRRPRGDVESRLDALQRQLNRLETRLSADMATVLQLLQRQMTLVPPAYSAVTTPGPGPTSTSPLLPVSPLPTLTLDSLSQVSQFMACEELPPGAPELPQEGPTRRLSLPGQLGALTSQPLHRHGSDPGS

With COCOC1CCC(C#N)(c2ccc(NC(=O)c3cnn(-c4ccc(C)cc4)c3C)cn2)CC1 (centres unmarked) [Example D3, N-{6-[r-1-Cyano-c-4-(methoxymethoxy)cyclohexyl]pyridin-3-yl}-5-methyl-1-(4-methylphenyl)-1H-pyrazole-4-carboxamide] the “hERG inhibition rate (%) (1 μM)” value [1] was 7.2% and the IC50 [2] was 182 nM.

From patent publication US9150555B2, “Amide derivative and use thereof” (Mitsubishi Tanabe Pharma Corporation, priority 2010, dated 2015)
